Test results as given in paper PMC8217340 (Phytotherapy research : PTR, 2021).
Where two headings read alike, the source gives them in different places. Each block holds one molecule with its values, some of them ahead of it.

Tests used:
UGT2B7 = settings: ref Uchaipichat, 2018; cited from earlier work
[1] = for Cmax: NASH animals, silymarin 500 mg/kg oral gavage, plasma, geometric mean (90% CI)
[2] = read-out: average Cmax; NAFLD and HCV patients; ref Fried, 2012; Wah Kheong et al., 2017; cited from earlier work
human OATP1B3 [3] = molecular target: T1, human OATP1B3 (Homo sapiens, UniProt Q9NPD5); type: cell-based; settings: 5 μM flavonolignan, 5 minutes; uptake minus wild-type CHO cells
T1 sequence (Q9NPD5 1-702): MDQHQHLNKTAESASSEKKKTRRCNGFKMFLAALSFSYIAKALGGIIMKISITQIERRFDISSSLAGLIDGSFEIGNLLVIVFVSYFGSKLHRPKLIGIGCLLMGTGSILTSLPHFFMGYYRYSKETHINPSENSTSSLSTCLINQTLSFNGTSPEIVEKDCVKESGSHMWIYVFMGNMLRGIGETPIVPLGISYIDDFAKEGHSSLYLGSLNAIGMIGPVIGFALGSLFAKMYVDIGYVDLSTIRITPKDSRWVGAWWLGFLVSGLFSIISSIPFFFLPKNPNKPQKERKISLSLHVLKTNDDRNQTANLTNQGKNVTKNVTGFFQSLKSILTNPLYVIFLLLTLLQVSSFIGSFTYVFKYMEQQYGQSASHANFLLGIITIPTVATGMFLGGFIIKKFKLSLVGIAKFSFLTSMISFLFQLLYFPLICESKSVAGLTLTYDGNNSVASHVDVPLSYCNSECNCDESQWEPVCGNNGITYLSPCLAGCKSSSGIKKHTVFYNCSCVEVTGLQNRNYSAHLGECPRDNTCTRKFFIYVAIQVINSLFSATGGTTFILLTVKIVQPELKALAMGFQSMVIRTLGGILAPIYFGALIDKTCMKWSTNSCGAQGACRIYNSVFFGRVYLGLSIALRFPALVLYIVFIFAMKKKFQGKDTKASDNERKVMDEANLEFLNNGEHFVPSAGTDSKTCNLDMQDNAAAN

human OATP1B1 [4] = molecular target: T2, human OATP1B1 (Homo sapiens, UniProt Q9Y6L6); type: cell-based; settings: 5 μM flavonolignan, 5 minutes; uptake minus wild-type CHO cells
T2 sequence (Q9Y6L6 1-691): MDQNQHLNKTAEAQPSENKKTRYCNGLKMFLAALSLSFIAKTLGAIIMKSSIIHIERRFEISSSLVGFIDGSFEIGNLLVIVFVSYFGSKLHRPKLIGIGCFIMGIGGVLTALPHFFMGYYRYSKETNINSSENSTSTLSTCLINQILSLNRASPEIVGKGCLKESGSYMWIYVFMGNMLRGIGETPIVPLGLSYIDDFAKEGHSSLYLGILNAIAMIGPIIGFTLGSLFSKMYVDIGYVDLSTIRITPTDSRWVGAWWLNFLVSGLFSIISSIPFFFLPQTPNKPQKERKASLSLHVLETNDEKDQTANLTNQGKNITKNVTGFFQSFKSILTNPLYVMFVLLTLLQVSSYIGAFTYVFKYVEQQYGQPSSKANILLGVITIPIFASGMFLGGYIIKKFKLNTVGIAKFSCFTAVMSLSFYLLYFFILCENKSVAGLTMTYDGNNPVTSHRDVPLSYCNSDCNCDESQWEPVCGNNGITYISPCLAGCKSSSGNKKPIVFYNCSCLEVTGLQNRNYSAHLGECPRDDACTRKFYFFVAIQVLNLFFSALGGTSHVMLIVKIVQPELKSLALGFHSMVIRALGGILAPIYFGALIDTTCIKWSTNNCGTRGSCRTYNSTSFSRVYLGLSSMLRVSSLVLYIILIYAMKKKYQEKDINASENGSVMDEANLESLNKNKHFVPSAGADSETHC

human OATP2B1 = molecular target: T3, human OATP2B1 (Homo sapiens, UniProt O94956); type: cell-based; settings: 5 μM flavonolignan, 5 minutes; for substrate for OATP2B1: uptake minus wild-type CHO cells
T3 sequence (O94956 1-709): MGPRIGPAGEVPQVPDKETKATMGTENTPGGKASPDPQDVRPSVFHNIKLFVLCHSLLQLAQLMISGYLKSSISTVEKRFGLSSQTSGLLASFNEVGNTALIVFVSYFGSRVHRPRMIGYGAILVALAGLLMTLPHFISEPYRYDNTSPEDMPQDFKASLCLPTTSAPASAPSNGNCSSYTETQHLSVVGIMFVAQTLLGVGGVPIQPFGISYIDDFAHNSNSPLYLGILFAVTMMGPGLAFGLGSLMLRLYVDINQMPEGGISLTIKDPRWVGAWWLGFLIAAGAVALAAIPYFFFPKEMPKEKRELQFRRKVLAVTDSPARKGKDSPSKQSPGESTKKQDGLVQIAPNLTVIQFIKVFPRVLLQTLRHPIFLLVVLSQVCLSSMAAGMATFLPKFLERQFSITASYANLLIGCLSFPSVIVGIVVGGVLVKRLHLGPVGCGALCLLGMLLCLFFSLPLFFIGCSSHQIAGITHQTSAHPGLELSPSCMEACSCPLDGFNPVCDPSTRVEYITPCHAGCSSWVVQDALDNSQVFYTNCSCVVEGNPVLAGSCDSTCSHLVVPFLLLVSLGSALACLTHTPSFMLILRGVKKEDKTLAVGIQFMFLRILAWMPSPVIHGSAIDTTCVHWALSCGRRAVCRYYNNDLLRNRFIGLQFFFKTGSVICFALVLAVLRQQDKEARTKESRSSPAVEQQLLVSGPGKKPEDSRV

[5] = in vivo; cited from earlier work
human OATP1B3 [6] = molecular target: T1, human OATP1B3; type: cell-based
human OATP1B1 [7] = molecular target: T2, human OATP1B1; type: cell-based
[8] = human, in vivo; cited from earlier work
[9] = type: in vivo, Sprague Dawley rats; settings: 27 hours after pitavastatin gavage
[10] = type: in vivo, Sprague Dawley rats

Molecule: COc1cc(C2Oc3cc([C@H]4Oc5cc(O)cc(O)c5C(=O)[C@@H]4O)ccc3OC2CO)ccc1O (stereo partly shown) [silybin]
concentrations at which inhibition of UGT2B7 occurs (UGT2B7): 0.60 to 1.5 mM

Molecule: COc1cc([C@H]2Oc3cc([C@H]4Oc5cc(O)cc(O)c5C(=O)[C@@H]4O)ccc3O[C@@H]2CO)ccc1O [SA, silybin A]
plasma AUC of SA relative to that of SC ([1]; oral silymarin 500 mg/kg): 110 times
Cmax [2]: 0.8 to 4.2 µM
substrate for OATP1B3 (human OATP1B3 [3]): substrates
substrate for OATP1B1 (human OATP1B1 [4]): substrates
substrate for OATP2B1 (human OATP2B1): substrates

Molecule: silybin A-4”-O-β-D-glucuronide [S4G]
Cmax [1]: 12.6 µM

Molecule: COc1cc([C@@H]2[C@H]3CO[C@@]4(O)C(=O)[C@@H]2C=C([C@H]2Oc5cc(O)cc(O)c5C(=O)[C@@H]2O)[C@@H]34)ccc1O [SD, silydianin]
substrate for OATP1B3 (human OATP1B3 [3]): substrates
substrate for OATP1B1 (human OATP1B1 [4]): substrates
substrate for OATP2B1 (human OATP2B1): substrates

Molecule: COc1cc([C@@H]2Oc3cc([C@H]4Oc5cc(O)cc(O)c5C(=O)[C@@H]4O)ccc3O[C@H]2CO)ccc1O [SB, silybin B]
substrate for OATP1B3 (human OATP1B3 [3]): substrates
substrate for OATP1B1 (human OATP1B1 [4]): substrates
substrate for OATP2B1 (human OATP2B1): substrates

Molecule: COc1cc([C@@H]2Oc3c(O)cc([C@H]4Oc5cc(O)cc(O)c5C(=O)[C@@H]4O)cc3[C@H]2CO)ccc1O [SC, silychristin]
substrate for OATP1B3 (human OATP1B3 [3]): substrates
substrate for OATP1B1 (human OATP1B1 [4]): substrates
transport activity of OATP2B1 compared to SA (human OATP2B1): lower transport activity
substrate for OATP2B1 (human OATP2B1): substrates

More lines, main results first:

Cmax [1]: 12.6 µM
Molecule: silybin A-7-O-β-D-glucuronide [S7G]

leftward shift in IC50 for OATP1B3 (human OATP1B3 [6]): 1.7 fold
leftward shift in IC50 for OATP1B1 (human OATP1B1 [7]): 2.8 fold
Molecule: silymarin
safety of the dose [5]: safe
adverse events [8]: no adverse events

substrate for OATP1B3 (human OATP1B3 [3]): substrates
substrate for OATP1B1 (human OATP1B1 [4]): substrates
substrate for OATP2B1 (human OATP2B1): substrates
Molecule: COc1cc([C@@H]2Oc3ccc([C@H]4Oc5cc(O)cc(O)c5C(=O)[C@@H]4O)cc3O[C@H]2CO)ccc1O [IB, isosilybin B]

liver pitavastatin content, NASH vs control groups [9]: not different
liver to plasma ratio in the NASH group [9]: decreased
silymarin effect on pitavastatin Cmax ([10]; 40-minute offset between pitavastatin and silymarin administration): no significant silymarin effect
increase of pitavastatin AUC0-27h by silymarin ([10]; NASH silymarin group vs NASH vehicle): 1.8 fold
increase of pitavastatin AUC0-27h by NASH alone ([10]; NASH vehicle compared to control vehicle): 2.9 fold
increase of pitavastatin AUC0-27h by the combination of silymarin and NASH ([10]; compared to the control vehicle group): 5.1 fold
increase of pitavastatin AUC0-27h by silymarin ([10]; control silymarin group vs control vehicle): 1.8 fold
increase of pitavastatin Cmax by NASH compared to control ([10]; in the absence of silymarin): 3.9 fold
increase of pitavastatin Cmax by NASH compared to control ([10]; in the presence of silymarin): 2.8 fold
Molecule: O=C(O)C[C@H](O)C[C@H](O)/C=C/c1c(C2CC2)nc2ccccc2c1-c1ccc(F)cc1 [Pitavastatin, Pitavastatin calcium]

substrate for OATP1B3 (human OATP1B3 [3]): substrates
substrate for OATP1B1 (human OATP1B1 [4]): substrates
substrate for OATP2B1 (human OATP2B1): substrates
Molecule: COc1cc([C@H]2Oc3ccc([C@H]4Oc5cc(O)cc(O)c5C(=O)[C@@H]4O)cc3O[C@@H]2CO)ccc1O [IA, isosilybin A]
